Reference: ChEMBL document CHEMBL1909046, “DrugMatrix in vitro pharmacology data”

Legend:
[1] = DRUGMATRIX: Phorbol Ester radioligand binding (ligand: [3H] PDBu); format: cell membranes, Mus musculus, ICR, Brain, Membrane; conditions: Not Active = under 50% inhibition at 10 µM
D(1A) dopamine receptor = D(1A) dopamine receptor (Homo sapiens, UniProt P21728); experiment: DRUGMATRIX: Dopamine D1 radioligand binding (ligand: [3H] SCH-23390); format: cell membranes, CHO, Membrane; conditions: cho; Not Active = under 50% inhibition at 10 µM
Sequence of D(1A) dopamine receptor (P21728 whole entry): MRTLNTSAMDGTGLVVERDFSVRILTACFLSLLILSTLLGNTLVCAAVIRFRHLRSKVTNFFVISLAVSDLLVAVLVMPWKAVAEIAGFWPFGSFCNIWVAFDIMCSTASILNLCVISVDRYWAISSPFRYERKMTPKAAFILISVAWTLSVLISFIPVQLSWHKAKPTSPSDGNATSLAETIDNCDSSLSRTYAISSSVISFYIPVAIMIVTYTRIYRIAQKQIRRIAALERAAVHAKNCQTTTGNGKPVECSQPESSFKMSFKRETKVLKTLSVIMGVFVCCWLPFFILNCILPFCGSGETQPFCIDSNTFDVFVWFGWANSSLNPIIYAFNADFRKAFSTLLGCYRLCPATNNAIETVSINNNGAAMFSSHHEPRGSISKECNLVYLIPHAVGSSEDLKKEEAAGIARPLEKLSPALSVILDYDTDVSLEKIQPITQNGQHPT

[2] = target: T1, Alpha-2A adrenergic receptor (Homo sapiens, UniProt P08913); format: cell membranes, Sf9, Membrane; conditions: sf9; also: in other assays of this panel Not Active means under 50% inhibition at 10 µM
T1 sequence (P08913 whole entry): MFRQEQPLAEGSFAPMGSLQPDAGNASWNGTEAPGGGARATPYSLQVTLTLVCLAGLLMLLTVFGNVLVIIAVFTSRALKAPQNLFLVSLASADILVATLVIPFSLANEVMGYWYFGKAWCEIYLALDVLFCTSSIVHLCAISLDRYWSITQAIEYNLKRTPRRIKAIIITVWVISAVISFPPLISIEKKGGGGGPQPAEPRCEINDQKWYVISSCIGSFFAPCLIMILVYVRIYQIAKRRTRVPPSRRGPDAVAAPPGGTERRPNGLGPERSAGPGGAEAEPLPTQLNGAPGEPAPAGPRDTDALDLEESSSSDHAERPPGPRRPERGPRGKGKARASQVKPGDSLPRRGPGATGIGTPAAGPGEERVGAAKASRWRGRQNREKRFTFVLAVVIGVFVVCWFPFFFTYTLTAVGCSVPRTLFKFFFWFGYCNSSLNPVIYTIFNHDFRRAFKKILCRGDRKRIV

[3] = target: Receptor tyrosine-protein kinase erbB-2 (Homo sapiens, UniProt P04626); format: cell-based; conditions: insect cells;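 also: inhibition of HER2 kinase enzyme activity, measured with Poly(Glu:Tyr) as the phosphorylation substrate; in other assays of this panel Not Active means under 50% inhibition at 10 µM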
Sequence of Receptor tyrosine-protein kinase erbB-2 (P04626 whole entry): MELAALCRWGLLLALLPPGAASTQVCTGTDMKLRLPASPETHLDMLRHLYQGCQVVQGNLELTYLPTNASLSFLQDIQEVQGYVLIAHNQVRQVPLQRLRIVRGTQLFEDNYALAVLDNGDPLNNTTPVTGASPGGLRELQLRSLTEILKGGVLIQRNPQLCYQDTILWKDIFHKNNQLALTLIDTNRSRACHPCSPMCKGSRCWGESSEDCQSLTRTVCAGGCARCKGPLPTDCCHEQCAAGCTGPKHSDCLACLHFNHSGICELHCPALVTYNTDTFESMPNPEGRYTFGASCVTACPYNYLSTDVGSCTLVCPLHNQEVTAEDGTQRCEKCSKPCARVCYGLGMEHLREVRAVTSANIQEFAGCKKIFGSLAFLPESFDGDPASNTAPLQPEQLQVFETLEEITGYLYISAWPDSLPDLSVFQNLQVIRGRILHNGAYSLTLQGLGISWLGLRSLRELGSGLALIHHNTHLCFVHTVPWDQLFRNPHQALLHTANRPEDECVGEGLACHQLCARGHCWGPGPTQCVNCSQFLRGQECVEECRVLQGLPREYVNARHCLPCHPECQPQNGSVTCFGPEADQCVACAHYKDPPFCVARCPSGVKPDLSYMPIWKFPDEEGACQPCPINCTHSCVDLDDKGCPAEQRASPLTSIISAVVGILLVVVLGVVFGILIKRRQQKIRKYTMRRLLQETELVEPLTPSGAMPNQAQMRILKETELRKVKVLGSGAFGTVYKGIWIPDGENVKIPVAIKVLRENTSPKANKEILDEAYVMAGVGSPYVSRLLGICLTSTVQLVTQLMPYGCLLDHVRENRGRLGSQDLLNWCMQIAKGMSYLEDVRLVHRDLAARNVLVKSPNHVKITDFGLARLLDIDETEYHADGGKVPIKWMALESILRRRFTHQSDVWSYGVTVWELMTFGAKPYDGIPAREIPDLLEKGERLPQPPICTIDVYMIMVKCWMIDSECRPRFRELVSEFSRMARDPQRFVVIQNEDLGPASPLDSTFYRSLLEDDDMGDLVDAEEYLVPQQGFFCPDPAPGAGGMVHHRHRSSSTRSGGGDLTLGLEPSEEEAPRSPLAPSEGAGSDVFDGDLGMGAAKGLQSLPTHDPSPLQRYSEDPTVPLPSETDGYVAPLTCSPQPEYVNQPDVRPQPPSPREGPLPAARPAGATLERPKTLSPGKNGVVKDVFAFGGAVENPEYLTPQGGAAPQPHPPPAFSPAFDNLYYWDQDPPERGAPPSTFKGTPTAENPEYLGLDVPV

Cathepsin G = target: T2, Cathepsin G (Homo sapiens, UniProt P08311); experiment: biochemical; format: tissue-based, Neutrophil; conditions: neutrophil;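 also: inhibition of Cathepsin G enzyme activity, tested on an AMC-conjugated peptide substrate; in other assays of this panel Not Active means under 50% inhibition at 10 µM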
T2 sequence (P08311 whole entry): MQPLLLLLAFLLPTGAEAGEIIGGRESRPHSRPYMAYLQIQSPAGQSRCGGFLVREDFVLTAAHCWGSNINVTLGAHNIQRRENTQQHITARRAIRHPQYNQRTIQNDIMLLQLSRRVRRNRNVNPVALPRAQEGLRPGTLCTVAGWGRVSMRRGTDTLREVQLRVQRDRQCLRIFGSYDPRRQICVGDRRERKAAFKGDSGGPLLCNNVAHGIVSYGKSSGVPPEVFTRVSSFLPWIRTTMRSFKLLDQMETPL

[4] = target: T3, Alpha-2C adrenergic receptor (Homo sapiens, UniProt P18825); experiment: DRUGMATRIX: Adrenergic Alpha-2C radioligand binding (ligand: [3H] MK-912); format: cell membranes, Sf9, Membrane; conditions: sf9
T3 sequence (P18825 whole entry): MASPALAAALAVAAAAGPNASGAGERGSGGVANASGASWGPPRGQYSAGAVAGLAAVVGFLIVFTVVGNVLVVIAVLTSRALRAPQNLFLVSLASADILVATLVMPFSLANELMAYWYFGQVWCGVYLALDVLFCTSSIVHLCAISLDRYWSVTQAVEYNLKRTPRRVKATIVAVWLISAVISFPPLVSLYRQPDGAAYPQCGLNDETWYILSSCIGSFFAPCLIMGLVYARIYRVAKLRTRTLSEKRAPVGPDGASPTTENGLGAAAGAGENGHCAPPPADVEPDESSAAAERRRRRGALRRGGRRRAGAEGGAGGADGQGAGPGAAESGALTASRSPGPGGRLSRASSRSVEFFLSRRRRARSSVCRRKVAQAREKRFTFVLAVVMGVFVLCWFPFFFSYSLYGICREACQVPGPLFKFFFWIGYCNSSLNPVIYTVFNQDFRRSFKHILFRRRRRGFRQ

c1ccc2c(c1)Nc1ccccc1S2 [PHENOTHIAZINE]
Not Active: IC50 [1] | Ki [1] | IC50 (D(1A) dopamine receptor) | IC50 [2] | IC50 [3] | IC50 (Cathepsin G) | IC50 [4]

Cl.NC[C@H]1CC[C@H](C(=O)Oc2ccc(CCC(=O)O)cc2)CC1 [CETRAXATE HYDROCHLORIDE]
Not Active: IC50 [1] | Ki [1] | IC50 (D(1A) dopamine receptor) | IC50 [2] | IC50 [3] | IC50 (Cathepsin G) | IC50 [4]

CN(CCOc1ccc(C[C@H](Nc2ccccc2C(=O)c2ccccc2)C(=O)O)cc1)c1ccccn1
Not Active: IC50 [1] | Ki [1] | IC50 (D(1A) dopamine receptor) | IC50 [2] | IC50 [3] | IC50 (Cathepsin G) | IC50 [4]

Nc1nc(F)nc2c1ncn2[C@@H]1O[C@H](CO)[C@@H](O)[C@@H]1O [FLUDARABINE]
Not Active: IC50 [1] | Ki [1] | IC50 (D(1A) dopamine receptor) | IC50 [2] | IC50 [3] | IC50 (Cathepsin G) | IC50 [4]

OC[C@H]1OC2C3[C@@H](CO)OC(O[C@H]4[C@H](O)[C@@H](O)[C@@H](O[C@H]5[C@H](O)[C@@H](O)[C@@H](O[C@H]6[C@H](O)[C@@H](O)[C@@H](O[C@H]7[C@H](O)[C@@H](O)[C@@H](O[C@H]8[C@H](O)[C@@H](O)[C@@H](O[C@H]9[C@H](O)[C@@H](O)C(OC1[C@H](O)[C@H]2O)O[C@@H]9CO)O[C@@H]8CO)O[C@@H]7CO)O[C@@H]6CO)O[C@@H]5CO)O[C@@H]4CO)[C@H](O)[C@H]3O
Not Active: IC50 [1] | Ki [1] | IC50 (D(1A) dopamine receptor) | IC50 [2] | IC50 [3] | IC50 (Cathepsin G) | IC50 [4]

C=CCO [ALLYL ALCOHOL]
Not Active: IC50 [1] | Ki [1] | IC50 (D(1A) dopamine receptor) | IC50 [2] | IC50 [3] | IC50 (Cathepsin G) | IC50 [4]

C[C@]12CC[C@@H](O)C[C@@H]1CC[C@@H]1[C@@H]2CC[C@]2(C)C(=O)CC[C@@H]12 [ANDROSTERONE]
Not Active: IC50 [1] | Ki [1] | IC50 (D(1A) dopamine receptor) | IC50 [2] | IC50 [3] | IC50 (Cathepsin G) | IC50 [4]

COC(=O)Nc1nc2ccc(Sc3ccccc3)cc2[nH]1 [FENBENDAZOLE]
Not Active: IC50 [1] | Ki [1] | IC50 (D(1A) dopamine receptor) | IC50 [2] | IC50 [3] | IC50 (Cathepsin G) | IC50 [4]

C#C[C@]1(O)CC[C@H]2[C@@H]3CCC4=CC(=O)CC[C@@H]4[C@H]3CC[C@@]21C [NORETHINDRONE]
Not Active: IC50 [1] | Ki [1] | IC50 (D(1A) dopamine receptor) | IC50 [2] | IC50 [3] | IC50 (Cathepsin G) | IC50 [4]

O=C(Nc1ccc(Cl)c(Cl)c1)c1cc(Cl)cc(Cl)c1O [3,3',4',5-TETRACHLOROSALICYLANILIDE]
Not Active: IC50 [1] | Ki [1] | IC50 (D(1A) dopamine receptor) | IC50 [2] | IC50 [3] | IC50 (Cathepsin G) | IC50 [4]

CCN(CCO)CCCC(C)Nc1ccnc2cc(Cl)ccc12 (configuration not stated) [HYDROXYCHLOROQUINE]
Not Active: IC50 [1] | Ki [1] | IC50 (D(1A) dopamine receptor) | IC50 [2] | IC50 [3] | IC50 (Cathepsin G) | IC50 [4]

COc1cc([C@@H]2c3cc4c(cc3[C@H](O)[C@H]3COC(=O)[C@H]23)OCO4)cc(OC)c1OC [PODOFILOX]
Not Active: IC50 [1] | Ki [1] | IC50 (D(1A) dopamine receptor) | IC50 [2] | IC50 [3] | IC50 (Cathepsin G) | IC50 [4]

COC(=O)C[C@](O)(CCC(C)(C)O)C(=O)O[C@@H]1C(OC)=C[C@]23CCCN2CCc2cc4c(cc2[C@H]13)OCO4 [HARRINGTONINE]
Not Active: IC50 [1] | Ki [1] | IC50 (D(1A) dopamine receptor) | IC50 [2] | IC50 [3] | IC50 (Cathepsin G) | IC50 [4]

CCCCCCNC(=O)n1cc(F)c(=O)[nH]c1=O [CARMOFUR]
Not Active: IC50 [1] | Ki [1] | IC50 (D(1A) dopamine receptor) | IC50 [2] | IC50 [3] | IC50 (Cathepsin G) | IC50 [4]

O=c1[nH]cnc2c1ncn2[C@H]1CC[C@@H](CO)O1 [DIDANOSINE]
Not Active: IC50 [1] | Ki [1] | IC50 (D(1A) dopamine receptor) | IC50 [2] | IC50 [3] | IC50 (Cathepsin G) | IC50 [4]

O=C(O)CO [GLYCOLIC ACID]
Not Active: IC50 [1] | Ki [1] | IC50 (D(1A) dopamine receptor) | IC50 [2] | IC50 [3] | IC50 (Cathepsin G) | IC50 [4]

CC(C)Cc1ccc([C@H](C)C(=O)O)cc1 [DEXIBUPROFEN]
Not Active: IC50 [1] | Ki [1] | IC50 (D(1A) dopamine receptor) | IC50 [2] | IC50 [3] | IC50 (Cathepsin G) | IC50 [4]

CC(C)(C#N)c1cc(Cn2cncn2)cc(C(C)(C)C#N)c1 [ANASTROZOLE]
Not Active: IC50 [1] | Ki [1] | IC50 (D(1A) dopamine receptor) | IC50 [2] | IC50 [3] | IC50 (Cathepsin G) | IC50 [4]

O=C1c2ccccc2C(=O)C1c1ccccc1 [PHENINDIONE]
Not Active: IC50 [1] | Ki [1] | IC50 (D(1A) dopamine receptor) | IC50 [2] | IC50 [3] | IC50 (Cathepsin G) | IC50 [4]

NC(=O)NC(=O)Cc1ccccc1 [PHENACEMIDE]
Not Active: IC50 [1] | Ki [1] | IC50 (D(1A) dopamine receptor) | IC50 [2] | IC50 [3] | IC50 (Cathepsin G) | IC50 [4]

O=C(NCCN1CCOCC1)c1ccc(Cl)cc1 [MOCLOBEMIDE]
Not Active: IC50 [1] | Ki [1] | IC50 (D(1A) dopamine receptor) | IC50 [2] | IC50 [3] | IC50 (Cathepsin G) | IC50 [4]

OC[C@H]1O[C@@H]2O[C@H]3[C@H](O)[C@@H](O)[C@@H](O[C@H]4[C@H](O)[C@@H](O)[C@@H](O[C@H]5[C@H](O)[C@@H](O)[C@@H](O[C@H]6[C@H](O)[C@@H](O)[C@@H](O[C@H]7[C@H](O)[C@@H](O)[C@@H](O[C@H]1[C@H](O)[C@H]2O)O[C@@H]7CO)O[C@@H]6CO)O[C@@H]5CO)O[C@@H]4CO)O[C@@H]3CO [ALFADEX]
Not Active: IC50 [1] | Ki [1] | IC50 (D(1A) dopamine receptor) | IC50 [2] | IC50 [3] | IC50 (Cathepsin G) | IC50 [4]

ClC1=C(Cl)[C@]2(Cl)[C@@H]3[C@@H]4C[C@@H]([C@H]5O[C@@H]45)[C@@H]3[C@@]1(Cl)C2(Cl)Cl [DIELDRIN]
Not Active: IC50 [1] | Ki [1] | IC50 (D(1A) dopamine receptor) | IC50 [2] | IC50 [3] | IC50 (Cathepsin G) | IC50 [4]

O=c1[nH]c2ccccc2c2ccccc12
Not Active: IC50 [1] | Ki [1] | IC50 (D(1A) dopamine receptor) | IC50 [2] | IC50 [3] | IC50 (Cathepsin G) | IC50 [4]

CCC1(c2ccccc2)C(=O)NC(=O)NC1=O [PHENOBARBITAL]
Not Active: IC50 [1] | Ki [1] | IC50 (D(1A) dopamine receptor) | IC50 [2] | IC50 [3] | IC50 (Cathepsin G) | IC50 [4]

Nc1ccc(C(=O)O)c(O)c1 [AMINOSALICYLIC ACID]
Not Active: IC50 [1] | Ki [1] | IC50 (D(1A) dopamine receptor) | IC50 [2] | IC50 [3] | IC50 (Cathepsin G) | IC50 [4]
